# Columns and labels:
# Escherichia coli = experiment: Antibacterial activity against Escherichia coli CIP 54.8; format: functional
# Pseudomonas aeruginosa = experiment: Antibacterial activity against Pseudomonas aeruginosa 100720; format: functional
# Acinetobacter baumannii = experiment: Antibacterial activity against Acinetobacter baumannii ATCC 19606; format: functional; details: ATCC 19606 = CIP 70.34 = JCM 6841
# Klebsiella pneumoniae = experiment: Antibacterial activity against Klebsiella pneumoniae CIP 82.91; format: functional
# Staphylococcus aureus = experiment: Antibacterial activity against Staphylococcus aureus CIP 7625; format: functional
# Enterococcus faecium = experiment: Antibacterial activity against Enterococcus faecium 20477; format: functional
# HepG2 = experiment: Cytotoxicity against human HepG2 cells assessed as reduction in cell viability; format: cell-based
SMILES,MIC (Escherichia coli),MIC (Pseudomonas aeruginosa),MIC (Acinetobacter baumannii),MIC (Klebsiella pneumoniae),MIC (Staphylococcus aureus),MIC (Enterococcus faecium),Activity (HepG2)
CCCCCC[P+](CCCCCC)(CCCCCC)CCCCCC[P+](CCCC)(CCCC)CCCC.[Br-].[Br-],> 64 µg/mL,> 64 µg/mL,> 64 µg/mL,> 64 µg/mL,2 µg/mL,8 µg/mL,
CCCCCC[P+](CCCCCC)(CCCCCC)CCCCCCCCCC[P+](CCCC)(CCCC)CCCC.[Br-].[Br-],4 µg/mL,64 µg/mL,8 µg/mL,16 µg/mL,0.5 µg/mL,2 µg/mL,Toxic
CCCCCC[N+](CCCCCC)(CCCCCC)CCCCCCCCCC[N+](CCCCCC)(CCCCCC)CCCCCC.[Br-].[Br-],2 µg/mL,8 µg/mL,16 µg/mL,4 µg/mL,0.5 µg/mL,0.5 µg/mL,Toxic
CCCCCC[P+](CCCCCC)(CCCCCC)CCCCCCCCCC[P+](CCCCCC)(CCCCCC)CCCCCC.[Cl-].[Cl-],2 µg/mL,4 µg/mL,2 µg/mL,2 µg/mL,0.5 µg/mL,0.5 µg/mL,
CCCCCCCC[P+](CCCCCCCC)(CCCCCCCC)CCCCCC[P+](CCCCCC)(CCCCCC)CCCCCC.[Br-].[Br-],8 µg/mL,8 µg/mL,4 µg/mL,4 µg/mL,1 µg/mL,2 µg/mL,
CCCCCC[N+](CCCCCC)(CCCCCC)CCCCCC[N+](CCCCCC)(CCCCCC)CCCCCC.[Br-].[Br-],32 µg/mL,> 64 µg/mL,> 64 µg/mL,> 64 µg/mL,1 µg/mL,1 µg/mL,
CCCCCC[P+](CCCCCC)(CCCCCC)CCCCCCCCCC[P+](CCCCCC)(CCCCCC)CCCCCC.[I-].[I-],2 µg/mL,2 µg/mL,2 µg/mL,2 µg/mL,0.5 µg/mL,0.5 µg/mL,
CCCCCCCC[P+](CCCCCCCC)(CCCCCCCC)CCCCCC[P+](CCCCCCCC)(CCCCCCCC)CCCCCCCC.[Br-].[Br-],32 µg/mL,> 64 µg/mL,8 µg/mL,32 µg/mL,1 µg/mL,2 µg/mL,
CCCC[P+](CCCC)(CCCC)CCCCCCCCCC[P+](CCCC)(CCCC)CCCC.[Br-].[Br-],> 64 µg/mL,> 64 µg/mL,> 64 µg/mL,> 64 µg/mL,16 µg/mL,> 64 µg/mL,Toxic
CCCC[P+](CCCC)(CCCC)CCCCCC[P+](CCCC)(CCCC)CCCC.[Br-].[Br-],> 64 µg/mL,> 64 µg/mL,> 64 µg/mL,> 64 µg/mL,> 64 µg/mL,> 64 µg/mL,
CCCCCCCC[P+](CCCCCCCC)(CCCCCCCC)CCCCCCCCCC[P+](CCCCCCCC)(CCCCCCCC)CCCCCCCC.[Br-].[Br-],> 64 µg/mL,> 64 µg/mL,> 64 µg/mL,> 64 µg/mL,16 µg/mL,32 µg/mL,Toxic
CCCCCC[P+](CCCCCC)(CCCCCC)CCCCCCCCCC[P+](CCCCCC)(CCCCCC)CCCCCC.[Br-].[Br-],2 µg/mL,4 µg/mL,4 µg/mL,4 µg/mL,0.5 µg/mL,1 µg/mL,Toxic
CCCCCC[N+](CCCCCC)(CCCCCC)CCCCCCCCCC[P+](CCCC)(CCCC)CCCC.[Br-].[Br-],16 µg/mL,> 64 µg/mL,> 64 µg/mL,64 µg/mL,1 µg/mL,2 µg/mL,
CCCCCC[N+](CCCCCC)(CCCCCC)CCCCCCCCCC[P+](CCCCCC)(CCCCCC)CCCCCC.[Br-].[Br-],2 µg/mL,8 µg/mL,8 µg/mL,2 µg/mL,0.5 µg/mL,1 µg/mL,Toxic
CCCCCC[P+](CCCCCC)(CCCCCC)CCCCCC[P+](CCCCCC)(CCCCCC)CCCCCC.[Br-].[Br-],4 µg/mL,8 µg/mL,16 µg/mL,8 µg/mL,0.5 µg/mL,0.5 µg/mL,
CCCCCC[N+](CCCCCC)(CCCCCC)CCCCCC[P+](CCCC)(CCCC)CCCC.[Br-].[Br-],> 64 µg/mL,> 64 µg/mL,> 64 µg/mL,> 64 µg/mL,32 µg/mL,64 µg/mL,
